Results on nine compounds are retold here after patent US7144893B2, “4-aryl quinols and analogs thereof as therapeutic agents” (Cancer Research Technology Limited, priority 2001, dated 2006).

≈ marks a conversion by molar mass, not a printed value.

One may read the melting point as the temperature of the solid-liquid transition. As a reminder, the half-life is how long it takes for the measured level to halve. One may read the GI50 as the concentration at which growth is held to half of that of the control. The low end stands for more potent growth inhibition, the high end for less potent growth inhibition. In general, IC50 refers to the concentration at which inhibition is half-maximal. For orientation: MIC means the least concentration at which growth counts as inhibited. By LC50 is commonly meant the concentration lethal to half of the exposed cells or organisms.

For data set [1] the following is noted: bovine, serum; cited from earlier work.
The subject of data set [2] is 60 human cancer cell lines. In words: cells. It counts as cell-based. The settings on record: Homo sapiens; for CC50: 48 h, read-out: mean LC50. As to the method: (§1) Compounds were tested for in vitro activity (48 h drug exposure) across 60 human cancer cell lines through the National Cancer Institute (NCI) Developmental Therapies Screening Program (Boyd et al., 1995).

Another data set has as its system HCT 116 colon carcinoma. In words: Growth inhibitory assay (MTT, 72 hr). The data set is classed as cell-based. As to conditions: Homo sapiens, 72 hr exposure. As to the method:
(§2) Compounds were prepared as 10 mM top stocks, dissolved in DMSO, and stored at 4° C., protected from light, for a maximum period of 4 weeks. Human derived cell lines (HCT 116, HT29 colon carcinoma; MCF-7 (ER+), MDA 468 (ER−) breast carcinoma; A549 lung adenocarcinoma) were routinely cultivated at 37° C. in an atmosphere of 5% CO2 in RPMI 1640 medium supplemented with 2 mM L-glutamine and 10% fetal calf serum and subcultured twice weekly to maintain continuous logarithmic growth. Cells were seeded into 96-well microtiter plates at a density of 5×10^3 per well and allowed 24 hr to adhere before drugs were introduced (final concentration 0.1 nM–100 μM, n=8). Serial drug dilutions were prepared in medium immediately prior to each assay. At the time of drug addition and following 72 hr exposure, MTT was added to each well (final concentration 400 µg/mL). Incubation at 37° C. for 4 hr allowed reduction of MTT by mitochondrial dehydrogenase to an insoluble formazan product. Well contents were aspirated and formazan solubilized by addition of DMSO:glycine buffer (pH 10.5) (4:1). Absorbance was measured using an Anthos Labtec systems plate reader at 550 nm, and used as a measure of cell viability; thus cell growth or drug toxicity was determined.

The subject of another data set is HT29 colon carcinoma. In words: Growth inhibitory assay (MTT, 72 hr). The settings on record: Homo sapiens, HT-29, 72 hr exposure. The data set is classed as cell-based. As to the method: as §2
Data set [3] relates to MCF-7 (ER+) breast carcinoma. In words: Growth inhibitory assay (MTT, 72 hr). The settings on record: Homo sapiens, MCF7, 72 hr exposure. It counts as cell-based. As to the method: as §2
For data set [4], the system named is MDA 468 (ER−) breast carcinoma. Description: Growth inhibitory assay (MTT, 72 hr). It counts as cell-based. As to conditions: Homo sapiens, 72 hr exposure. As to the method: as §2
The subject of data set [5] is Mycobacterium tuberculosis H37Rv (ATCC 27294). In words: Microplate Alamar Blue Assay (MABA), TAACF primary screening. The settings on record: lowest concentration effecting a reduction in fluorescence of 90% relative to controls. It counts as cell-based. The source says:
Compounds were submitted to the Tuberculosis Antimicrobial Acquisition and Coordinating Facility (TAACF) for testing as antimycobacterial drugs.
Compounds were subjected to in vitro evaluation for antimycobacterial activity.
See, for example, Collins et al., 1997.

The next data set concerns colon sub-panel. In words: cells. It counts as cell-based. The settings on record: Homo sapiens, SW-620, read-out: mean LC50 in colon sub-panel. As to the method: as §1
The test system of another data set is renal sub-panel. In words: cells. It counts as cell-based. As to conditions: Homo sapiens, 60 cell, read-out: mean LC50 in renal sub-panel. As to the method: as §1
Another data set deals with A549 lung adenocarcinoma. Description: Growth inhibitory assay (MTT, 72 hr). It counts as cell-based. As to conditions: Homo sapiens, 72 hr exposure. As to the method: as §2
Another data set deals with thioredoxin (Homo sapiens, UniProt P10599). The settings on record: irreversible inhibitor of thioredoxin; cited from earlier work.
Chain of thioredoxin (P10599 whole entry): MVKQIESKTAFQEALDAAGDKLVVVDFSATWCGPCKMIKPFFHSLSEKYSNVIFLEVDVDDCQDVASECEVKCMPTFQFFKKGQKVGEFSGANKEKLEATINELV
Setting [6] is: mean over NCI 60 cell panel, 48 h drug exposure.

`COc1ccc(C(=O)OC2(c3nc4ccccc4s3)C=CC(=O)C=C2)cc1` [Q35, 4-(para-methoxybenzoyloxy)-4-(benzothiazol-2-yl)-2,5-cyclohexadien-1-one]: the melting point was 137 °C.

For `O=CN/C=C/c1cc(O)ccc1O` [erbstatin], the half-life in data set [1] is recorded as less than 30 min.

Take `O=C1C=CC(O)(c2nc3ccccc3[nH]2)C=C1` [Q07, 4-(Benzimidazol-2-yl)-4-hydroxy-2,5-cyclohexadien-1-one]: the melting point turned out to be 234 °C. In data set [2] (setting [6]), this compound gave a GI50 of 1.1 µM. In addition, in the data set on HCT 116 colon carcinoma, the IC50 was 0.21 µM. The compound also gave an IC50 with HT29 colon carcinoma of 0.504 µM. For the same compound, the IC50 in [3] amounted to 0.509 µM. Moreover, the IC50 in data set [4] is 0.353 µM. Besides, the MIC in [5] came to 3.13 µg/mL (≈ 13.8 µM).

In the case of `O=C1C=CC(O)(c2cc3ccccc3s2)C=C1` [Q02, 4-(Benzothiophen-2-yl)-4-hydroxy-2,5-cyclohexadien-1-one], in data set [2] (60 cell), the CC50 turned out to be 5.75 µM. Further, the GI50 turned out to be 0.55 µM in [2] (60 cell, Table 5) and 0.25 µM in data set [2] (setting [6]). Further, the LC50 in the data set with colon sub-panel is 1.69 µM. In addition, in the data set with renal sub-panel, the mean LC50 is 1.4 µM. Further, the IC50 in the data set with A549 lung adenocarcinoma came out at 2.43 µM; in the data set with HCT 116 colon carcinoma it was 0.169 µM; with HT29 colon carcinoma it was 0.552 µM.

In turn, `O=C1C=CC(O)(c2cc3ccccc3[nH]2)C=C1` [Q03, 4-(Indol-2-yl)-4-hydroxy-2,5-cyclohexadien-1-one] registered a melting point of 133 °C. Further, growth in data set [2] (setting [6]) was halved (GI50) at 1.41 µM. The compound further registered an IC50 in the data set on A549 lung adenocarcinoma of 6.13 µM. This compound also displayed an IC50 with HCT 116 colon carcinoma of 2.84 µM. Moreover, in the data set with HT29 colon carcinoma, inhibition was half-maximal at 1.76 µM (IC50). The lowest concentration to inhibit growth in data set [5] (MIC) was 3.13 µg/mL (≈ 13.9 µM).

With `O=C1C=CC(OC(=O)c2ccc([N+](=O)[O-])cc2)(c2nc3ccccc3s2)C=C1` [Q34, 4-(para-nitrobenzoyloxy)-4-(benzothiazol-2-yl)-2,5-cyclohexadien-1-one], the melting point came out at 138 °C.

Consider `CN(C)CC1CCC(CN(C)C)C1=O` (stereo not shown) [NSC-131233, 2,5-bis[(dimethylamino)methyl]cyclopentanone], for which the Ki at thioredoxin is 1 µM.

For the compound `O=C1C=CC(O)(c2nc3ccccc3o2)C=C1` [Q04, 4-(Benzoxazol-2-yl)-4-hydroxy-2,5-cyclohexadien-1-one], the CC50 in data set [2] (60 cell) was found to be 7.08 µM. The concentration for 50% growth inhibition (GI50) in data set [2] (setting [6]) stood at 0.46 µM. For the same compound, the LC50 with colon sub-panel stood at 1.13 µM. Further, the mean LC50 in the data set on renal sub-panel is 1.64 µM. Besides, the IC50 amounted to 2.33 µM in the data set with A549 lung adenocarcinoma; 0.18 µM in the data set with HCT 116 colon carcinoma; 0.29 µM in the data set with HT29 colon carcinoma; 0.39 µM in data set [3]; 0.35 µM in data set [4]. 1.56 µg/mL (≈ 6.87 µM) was the least that counted as inhibitory in data set [5] (MIC).

Consider `O=C1C=CC(O)(c2cc3ccccc3o2)C=C1` [Q01, 4-(Benzofuran-2-yl)-4-hydroxy-2,5-cyclohexadien-1-one], for which the CC50 in data set [2] (60 cell) amounted to 7.24 µM. Besides, in data set [2] (setting [6]), the concentration for 50% growth inhibition (GI50) came to 0.52 µM. In the data set with colon sub-panel, the LC50 worked out at 3.66 µM. Also, the mean LC50 with renal sub-panel stood at 2.4 µM. The IC50 in the data set on A549 lung adenocarcinoma came out at 2.3 µM; in the data set with HCT 116 colon carcinoma, 0.159 µM; in the data set on HT29 colon carcinoma, 0.419 µM. This compound came in with an MIC in [5] of 1.56 µg/mL (≈ 6.9 µM).
